Values quoted from earlier work as cited in patent US20060141047A1, “Methods and compositions for delivery of catecholic butanes for treatment of obesity” (priority 2003, published 2006).

How the values were obtained:
[1] = system: mammary carcinoma MX-1 xenograft; conditions: intratumor injection or topical application, athymic mice, U.S. Pat. No. 5,008,294; cited from earlier work
[2] = system: HPV-16 transformed immortal mouse epithelial cells (C3); conditions: intratumor injection, separately or together, U.S. Pat. No. 6,417,234 and 6,214,874; cited from earlier work

Structure (SMILES) | Inhibition of tumor growth [1] | Suppression of tumor growth [2]
CC(Cc1ccc(O)c(O)c1)C(C)Cc1ccc(O)c(O)c1 (centres unmarked) [NDGA, nordihydroguaiaretic acid] | Some evidence of inhibition of tumor growth | –
C[C@H](Cc1ccc(OC(=O)CN(C)C)c(OC(=O)CN(C)C)c1)[C@@H](C)Cc1ccc(OC(=O)CN(C)C)c(OC(=O)CN(C)C)c1 [G4N, meso-1,4-bis[3,4-(dimethylaminoacetoxy)phenyl]-(2R,3S)-dimethylbutane] | – | some evidence of suppression of tumor growth
